Results: patent publication US7868188B2, “5-heteroaryl thiazoles and their use as PI3K inhibitors” (AstraZeneca AB, priority 2004, dated 2011)

Columns and labels:
Assay in all cases: PI 3-Kinase Assay (Additional Pharmacological Analysis, AlphaScreen)
Assay type in all cases: biochemical
Details in all cases: 40 μM ATP
p110β Type Ia human PI3K = biological target: T1, p110β Type Ia human PI3K (Homo sapiens, UniProt P42338)
T1 construct: full length DNA of each of the p110α, p110β and p110δ Type Ia human PI3K p110 isoforms; 6-His; made in house; host or cells: baculovirus expression system (Sf9 is named only for PI3Kγ)
T1 sequence (P42338 whole entry, canonical isoform): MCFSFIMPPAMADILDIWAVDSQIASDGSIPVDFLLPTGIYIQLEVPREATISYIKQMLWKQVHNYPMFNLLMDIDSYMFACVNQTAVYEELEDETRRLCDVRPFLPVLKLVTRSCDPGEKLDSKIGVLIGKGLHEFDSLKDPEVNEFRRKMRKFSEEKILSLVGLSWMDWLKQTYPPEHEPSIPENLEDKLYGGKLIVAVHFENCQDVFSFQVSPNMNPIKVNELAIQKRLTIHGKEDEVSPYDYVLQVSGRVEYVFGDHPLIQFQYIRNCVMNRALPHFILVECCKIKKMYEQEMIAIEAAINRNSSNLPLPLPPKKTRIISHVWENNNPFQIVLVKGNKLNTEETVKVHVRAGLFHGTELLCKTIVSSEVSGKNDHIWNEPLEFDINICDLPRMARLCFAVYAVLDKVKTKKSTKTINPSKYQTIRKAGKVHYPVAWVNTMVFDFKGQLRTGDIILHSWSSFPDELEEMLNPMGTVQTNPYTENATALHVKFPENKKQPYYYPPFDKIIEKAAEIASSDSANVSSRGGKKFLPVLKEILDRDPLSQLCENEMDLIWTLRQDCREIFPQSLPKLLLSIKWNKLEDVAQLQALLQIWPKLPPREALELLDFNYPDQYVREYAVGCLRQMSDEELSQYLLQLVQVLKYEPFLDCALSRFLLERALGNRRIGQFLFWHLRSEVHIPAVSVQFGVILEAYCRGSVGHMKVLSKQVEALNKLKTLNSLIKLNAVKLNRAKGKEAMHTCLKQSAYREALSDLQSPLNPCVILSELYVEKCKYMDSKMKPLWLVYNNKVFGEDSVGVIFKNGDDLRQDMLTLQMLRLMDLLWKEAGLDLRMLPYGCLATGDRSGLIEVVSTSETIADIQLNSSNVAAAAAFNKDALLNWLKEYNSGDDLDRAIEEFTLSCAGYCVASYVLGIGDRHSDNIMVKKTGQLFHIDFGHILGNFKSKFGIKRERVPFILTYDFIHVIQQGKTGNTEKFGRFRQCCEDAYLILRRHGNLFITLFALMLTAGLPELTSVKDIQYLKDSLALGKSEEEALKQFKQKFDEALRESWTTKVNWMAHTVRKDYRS
T1 sequence (P27986 whole entry partner, canonical isoform): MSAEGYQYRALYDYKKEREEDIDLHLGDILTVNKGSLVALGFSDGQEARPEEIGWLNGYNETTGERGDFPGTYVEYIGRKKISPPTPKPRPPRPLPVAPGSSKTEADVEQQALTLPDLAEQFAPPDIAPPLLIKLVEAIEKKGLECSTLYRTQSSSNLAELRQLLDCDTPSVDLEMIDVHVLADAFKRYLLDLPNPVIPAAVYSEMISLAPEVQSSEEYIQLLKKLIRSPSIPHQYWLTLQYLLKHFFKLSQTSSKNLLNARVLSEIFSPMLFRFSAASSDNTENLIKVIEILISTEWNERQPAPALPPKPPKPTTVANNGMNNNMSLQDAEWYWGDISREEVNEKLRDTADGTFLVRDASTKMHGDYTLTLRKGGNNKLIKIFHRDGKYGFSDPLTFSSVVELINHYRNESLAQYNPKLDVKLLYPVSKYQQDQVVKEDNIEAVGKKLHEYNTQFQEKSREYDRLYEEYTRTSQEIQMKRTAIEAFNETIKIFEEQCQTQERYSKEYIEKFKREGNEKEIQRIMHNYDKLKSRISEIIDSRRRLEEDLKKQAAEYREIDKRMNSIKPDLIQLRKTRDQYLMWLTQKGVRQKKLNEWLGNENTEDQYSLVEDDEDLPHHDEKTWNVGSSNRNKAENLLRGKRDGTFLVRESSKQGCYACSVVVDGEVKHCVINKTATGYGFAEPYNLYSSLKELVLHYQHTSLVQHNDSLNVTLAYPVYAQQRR
Description: (§1) In order to assess the ability of compounds to inhibit PI3K enzymes, especially PI3Kγ, a novel PI3K assay technology was established. The PI3K enzyme reaction product phosphatidylinositol 3,4,5-trisphosphate (PtdIns(3,4,5)P3) is detected using the pleckstrin homology (PH) domain from general receptor for phosphoinositides (GRP1) as probe. Thus, complexes form between GRP1 PH and PtdIns(3,4,5)P3, and if the lipid is biotinylated and the PH domain tagged with glutathion transferase (GST), the complexes can be detected using AlphaScreen® (PerkinElmer) technology. The signal generated by the complex between GRP1 PH-GST and PtdIns(3,4,5)P3-biotin can be quenched by introduction of non-biotinylated PtdIns(3,4,5)P3, forming the basis for an assay measuring the production of PtdIns(3,4,5)P3 by PI3K enzyme activity.
(§2) Biotinylated PtdIns(3,4,5)P3 was detected using AlphaScreen® technology. Detection was in 384-well microplates in 50 mM Hepes, pH7.4, 50 mM NaCl and 0.1% BSA. The biotinylated, short chain (diC8) phosphoinositide and GRP1 PH-GST were added at 15 nM and 3.75 nM, respectively. Donor and acceptor AlphaScreen® beads (Perkin Elmer) were added at 5 μg/ml to a final volume of 50 μl. Plates were incubated in the dark for 5 hours to ensure binding was complete and then read in an AlphaQuest AD instrument (Perkin Elmer) using standard settings.
(§3) The GRP1 PH domain (amino acids 263 to 380) was PCR cloned from a mouse brain cDNA library (Stratagene), expressed in E. coli and purified using standard protocols. Lipids were from Echelon Research Laboratories, Salt Lake City, Utah, or Cell Signals Inc., Lexington, Ky., USA.
(§4) The assay used AlphaScreen® based detection of PI(3,4,5)P3 (Gray et al., Anal. Biochem., 2003, 313, 234-245) to determine the ability of test compounds to inhibit phosphorylation of recombinant PI3Ks of PI(4,5)P2.
(§5) DNA fragments encoding human PI3K catalytic and regulatory subunits were isolated from cDNA libraries using standard molecular biology and PCR cloning techniques. The selected DNA fragments were used to generate baculovirus expression vectors. In particular, full length DNA of each of the p110α, p110β and p110δ Type Ia human PI3K p110 isoforms (EMBL Accession Nos. HSU79143, S67334, Y10055 for p110α, p110β and p110δ, respectively) were sub-cloned into a pDEST10 vector (Invitrogen Limited, Fountain Drive, Paisley, UK). The vector is a Gateway-adapted version of Fastbac1 containing a 6-His epitope tag. The full length human p85 (regulatory subunit (EMBL Accession No. HSP13KIN) was also sub-cloned into pFastBac1 vector containing a 6-His epitope tag. The Type Ia p110 constructs were co-expressed with the p85α regulatory subunit. Residues 2-1102 of human PI3Kγ were inserted between the BamHI and Not1 cloning sites of the […] HTb vector for expression of His(6)-tagged (N-terminal), full length PI3Kγ in baculo virus infected Sf9 insect cells. Following expression in the baculovirus system using standard baculovirus expression techniques, expressed proteins were purified using standard His epitope tag purification techniques.
(§6) Standard enzyme reactions were performed in 50 mM Hepes, pH7.4, 50 mM NaCl, […], 5 mM DTT and 0.05% CHAPS containing 40 μM ATP, 40 μM diC8 PtdIns(4,5)P2 and 2-20 ng of Type 1 PI3K in a total volume of 20 μl. The reaction was stopped by the addition of 10 μl of EDTA/diC6 PtdIns(3,4,5)P3-biotin followed by 20 μl of GRP1 PH-GST/AlphaScreen beads both in 50 mM Hepes, pH7.4, 50 mM NaCl and 0.1% BSA. Final concentrations were 50 mM EDTA, 15 nM biotinylated diC6PtdIns(3,4,5)P3, 3.75 nM GRP1 PH-GST and 5 μg/ml of AlphaScreen beads. Inhibitors were added to dry wells in […] of 100% DMSO giving a final DMSO concentration of 2.5% in the assay. Control wells contained 2.5% DMSO in the absence of test compound. Inhibition of PI3K by test compounds was expressed as an IC50 value.

p110γ Type Ib human PI3K = biological target: T2, p110γ Type Ib human PI3K (Homo sapiens, UniProt P48736)
T2 construct: Residues 2-1102 of human PI3Kγ were inserted between the BamHI and Not1 cloning sites; His(6) (N); made in house; host or cells: baculovirus-infected Sf9 insect cells
T2 sequence (P48736 2-1102): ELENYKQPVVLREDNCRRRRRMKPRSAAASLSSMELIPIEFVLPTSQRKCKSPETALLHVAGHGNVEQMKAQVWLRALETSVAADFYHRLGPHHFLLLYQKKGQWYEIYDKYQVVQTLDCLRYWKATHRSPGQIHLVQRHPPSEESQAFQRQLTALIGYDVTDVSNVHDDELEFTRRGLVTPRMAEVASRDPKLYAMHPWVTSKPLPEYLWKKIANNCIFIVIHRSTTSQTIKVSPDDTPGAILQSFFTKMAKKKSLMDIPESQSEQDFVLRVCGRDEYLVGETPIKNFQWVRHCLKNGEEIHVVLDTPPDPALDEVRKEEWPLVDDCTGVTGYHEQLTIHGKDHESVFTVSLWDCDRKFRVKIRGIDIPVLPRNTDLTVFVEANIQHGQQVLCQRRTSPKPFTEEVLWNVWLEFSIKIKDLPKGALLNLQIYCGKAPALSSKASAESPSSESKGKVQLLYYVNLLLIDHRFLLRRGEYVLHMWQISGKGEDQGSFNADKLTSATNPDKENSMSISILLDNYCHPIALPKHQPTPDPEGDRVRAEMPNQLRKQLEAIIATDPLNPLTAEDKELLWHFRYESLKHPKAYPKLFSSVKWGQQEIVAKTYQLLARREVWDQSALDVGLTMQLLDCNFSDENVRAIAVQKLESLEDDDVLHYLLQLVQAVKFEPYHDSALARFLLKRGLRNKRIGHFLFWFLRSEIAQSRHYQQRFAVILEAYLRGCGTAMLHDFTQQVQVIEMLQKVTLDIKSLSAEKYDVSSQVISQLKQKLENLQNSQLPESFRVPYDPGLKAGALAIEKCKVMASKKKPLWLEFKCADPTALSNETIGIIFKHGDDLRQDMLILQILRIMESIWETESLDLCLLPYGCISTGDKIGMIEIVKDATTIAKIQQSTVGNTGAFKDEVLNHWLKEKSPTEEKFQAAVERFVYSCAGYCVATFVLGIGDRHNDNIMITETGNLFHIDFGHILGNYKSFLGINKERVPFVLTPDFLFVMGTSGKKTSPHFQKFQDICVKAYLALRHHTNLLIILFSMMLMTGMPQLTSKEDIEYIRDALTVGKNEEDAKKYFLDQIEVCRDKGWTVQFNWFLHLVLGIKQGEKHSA
Description: as §1, §2, §3, §4, §5, §6

p110δ Type Ia human PI3K = biological target: T3, p110δ Type Ia human PI3K (Homo sapiens, UniProt O00329)
T3 construct: full length DNA of each of the p110α, p110β and p110δ Type Ia human PI3K p110 isoforms; 6-His; made in house; host or cells: baculovirus expression system (Sf9 is named only for PI3Kγ)
T3 sequence (O00329 whole entry, canonical isoform): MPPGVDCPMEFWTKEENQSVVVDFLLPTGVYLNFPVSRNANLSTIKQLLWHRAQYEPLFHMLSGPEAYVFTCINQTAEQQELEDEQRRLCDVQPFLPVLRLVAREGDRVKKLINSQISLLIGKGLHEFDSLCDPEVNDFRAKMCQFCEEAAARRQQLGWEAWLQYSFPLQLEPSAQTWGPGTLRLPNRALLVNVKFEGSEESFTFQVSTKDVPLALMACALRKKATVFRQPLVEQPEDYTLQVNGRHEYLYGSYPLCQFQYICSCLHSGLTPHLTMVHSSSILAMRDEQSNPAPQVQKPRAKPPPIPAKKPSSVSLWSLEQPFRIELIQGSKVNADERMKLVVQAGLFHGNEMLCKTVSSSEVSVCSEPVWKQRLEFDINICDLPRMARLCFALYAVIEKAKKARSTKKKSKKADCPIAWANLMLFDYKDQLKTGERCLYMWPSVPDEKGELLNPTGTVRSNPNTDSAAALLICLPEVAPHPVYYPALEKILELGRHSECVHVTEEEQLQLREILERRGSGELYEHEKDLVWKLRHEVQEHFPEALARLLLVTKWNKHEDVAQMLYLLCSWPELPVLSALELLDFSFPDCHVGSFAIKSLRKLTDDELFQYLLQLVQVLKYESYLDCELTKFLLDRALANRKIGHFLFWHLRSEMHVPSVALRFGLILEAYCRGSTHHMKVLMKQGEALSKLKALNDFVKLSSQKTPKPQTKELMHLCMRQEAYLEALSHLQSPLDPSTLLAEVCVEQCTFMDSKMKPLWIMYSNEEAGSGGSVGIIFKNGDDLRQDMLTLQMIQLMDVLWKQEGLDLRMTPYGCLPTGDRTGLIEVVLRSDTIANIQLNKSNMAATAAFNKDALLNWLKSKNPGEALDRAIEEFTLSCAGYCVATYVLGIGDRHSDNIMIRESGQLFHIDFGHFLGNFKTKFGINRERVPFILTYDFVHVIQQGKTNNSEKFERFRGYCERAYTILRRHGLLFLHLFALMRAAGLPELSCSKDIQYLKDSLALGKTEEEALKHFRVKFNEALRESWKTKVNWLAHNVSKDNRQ
T3 sequence (P27986 whole entry partner, canonical isoform): as the sequence (P27986 whole entry partner, canonical isoform) above
Description: as §1, §2, §3, §4, §5, §6

p110α Type Ia human PI3K = biological target: T4, p110α Type Ia human PI3K (Homo sapiens, UniProt P42336)
T4 construct: full length DNA of each of the p110α, p110β and p110δ Type Ia human PI3K p110 isoforms; 6-His; made in house; host or cells: baculovirus expression system (Sf9 is named only for PI3Kγ)
T4 sequence (P42336 whole entry, canonical isoform): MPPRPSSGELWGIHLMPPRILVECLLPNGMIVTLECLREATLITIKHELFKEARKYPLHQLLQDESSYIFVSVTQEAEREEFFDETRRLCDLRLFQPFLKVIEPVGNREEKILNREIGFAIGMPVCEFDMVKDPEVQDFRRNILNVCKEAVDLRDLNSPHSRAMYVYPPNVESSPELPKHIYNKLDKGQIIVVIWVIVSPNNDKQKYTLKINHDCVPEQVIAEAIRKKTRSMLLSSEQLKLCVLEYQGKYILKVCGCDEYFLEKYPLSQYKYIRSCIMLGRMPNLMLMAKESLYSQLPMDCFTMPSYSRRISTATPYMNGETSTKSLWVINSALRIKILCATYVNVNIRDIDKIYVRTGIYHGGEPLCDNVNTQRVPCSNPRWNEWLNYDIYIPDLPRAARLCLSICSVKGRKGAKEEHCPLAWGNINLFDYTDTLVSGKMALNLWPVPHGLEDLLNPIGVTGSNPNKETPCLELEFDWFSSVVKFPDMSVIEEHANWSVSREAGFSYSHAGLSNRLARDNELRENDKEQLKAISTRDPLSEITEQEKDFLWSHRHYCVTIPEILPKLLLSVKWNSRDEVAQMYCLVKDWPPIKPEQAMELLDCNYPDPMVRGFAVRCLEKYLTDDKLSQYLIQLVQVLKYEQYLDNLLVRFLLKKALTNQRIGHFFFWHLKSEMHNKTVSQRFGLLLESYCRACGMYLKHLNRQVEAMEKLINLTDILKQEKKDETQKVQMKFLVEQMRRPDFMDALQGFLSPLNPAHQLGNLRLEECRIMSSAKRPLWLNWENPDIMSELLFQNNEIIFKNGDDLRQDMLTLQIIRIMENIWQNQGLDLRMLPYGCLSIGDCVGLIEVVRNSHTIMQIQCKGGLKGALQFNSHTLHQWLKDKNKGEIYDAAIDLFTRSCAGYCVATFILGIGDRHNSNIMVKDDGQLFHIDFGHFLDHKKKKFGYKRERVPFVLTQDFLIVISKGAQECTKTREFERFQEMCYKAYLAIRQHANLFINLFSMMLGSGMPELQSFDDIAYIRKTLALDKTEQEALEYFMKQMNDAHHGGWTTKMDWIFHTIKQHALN
T4 sequence (P27986 whole entry partner, canonical isoform): as the sequence (P27986 whole entry partner, canonical isoform) above
Description: as §1, §2, §3, §4, §5, §6

SMILES | IC50 (p110β Type Ia human PI3K) [µM] | IC50 (p110γ Type Ib human PI3K) [µM] | IC50 (p110δ Type Ia human PI3K) [µM] | IC50 (p110α Type Ia human PI3K) [µM]
CC(=O)Nc1nc(C)c(-c2cnc(Cl)c(S(C)(=O)=O)c2)s1 [Example 7, N-[5-(6-Chloro-5-methylsulfonyl-pyridin-3-yl)-4-methyl-1,3-thiazol-2-yl]acetamide] | 0.74 | 0.22 | 0.15 | 0.42
CC(=O)Nc1nc(C)c(-c2cnc(Cl)c(NS(=O)(=O)CCCN3CCN(C)CC3)c2)s1 [Example 31, N-(5-{6-Chloro-5-[3-(4-methylpiperazin-1-yl)propylsulfonylamino]pyridin-3-yl}-4-methyl-1,3-thiazol-2-yl)acetamide bis(trifluoroacetate)] | 0.25 | 0.16 | 0.01 | 0.05

The next lines start with the values.

IC50 (p110β Type Ia human PI3K) [µM] | IC50 (p110γ Type Ib human PI3K) [µM] | IC50 (p110δ Type Ia human PI3K) [µM] | IC50 (p110α Type Ia human PI3K) [µM] | SMILES
1.89 | 0.4 | 0.2 | 0.57 | CC(=O)Nc1nc(C)c(-c2cncc(S(=O)(=O)NCCO)c2)s1 [Example 8, N-{5-[5-(2-Hydroxyethylaminosulfonyl)pyridin-3-yl]-4-methyl-1,3-thiazol-2-yl}acetamide]
0.63 | 0.12 | 0.2 | 0.28 | CC(=O)Nc1nc(C)c(-c2cnc(Cl)c(NCc3ccccc3)c2)s1 [Example 46, N-{5-[5-(Benzylamino)-6-chloropyridin-3-yl]-4-methyl-1,3-thiazol-2-yl}acetamide]
0.12 | 0.26 | < 0.1 | 0.23 | COCC(=O)Nc1nc(C)c(-c2cnc(Cl)c(NS(=O)(=O)c3ccccc3)c2)s1 [Example 56, N-[5-(5-Benzenesulfonylamino-6-chloropyridin-3-yl)-4-methyl-1,3-thiazol-2-yl]-2-methoxyacetamide]
